Patent US9572788B2, “Cell permeable inhibitors of anaphase promoting complex” (President and Fellows of Harvard College, priority 2014, dated 2017)

Tests used:
APC = APC (Xenopus laevis, UniProt A0A1L8ESF3); experiment: Cyclin B1-luciferase reporter degradation (luciferase assay) in mitotic Xenopus egg extract; type: biochemical; conditions: mitotic Xenopus extract
Procedure: The extract was incubated at room temperature and 3 μL samples were taken at 0, 20, 40 and 60 min.

Xenopus APC = experiment: ^3H-TAME binding assay in interphase extract; conditions: 200 nM ^3H-TAME
Text: The beads were washed quickly twice with XB high salt and twice with XB.

APC/C = experiment: ^35S-labeled substrate degradation in mitotic Xenopus egg extract; type: biochemical; conditions: 200 μM
Procedure: Mitotic extracts were pretreated with DMSO or compounds for 10 min. Substrates were expressed and ^35S-methionine labeled using the TNT system from Promega and added to the extract at 10% final volume.
Substrates consisted of human full length cyclin B1, cyclin A2, securin, Nek2A, or an N-terminal fragment of human cyclin B1 (residues 1-88). Each substrate was amplified with primers by PCR to allow T7-dependent transcription of the PCR product. Substrates were expressed and labeled with ^35S-methionine (Perkin Elmer NEG709A500UC) using the TNT system from Promega. […] The in vitro-translation reaction was then added to the mitotic Xenopus extract at 10% final volume. Extracts were then incubated at 24° C., with shaking at 1250 rpm, with samples taken at indicated times. Reactions were quenched with SDS sample buffer and processed for SDS-PAGE and phosphoimaging (Bio-Rad PMI) and quantification was performed using Quantity One software (Bio-Rad).
A 35S-labeled cyclin B1 protein was expressed in reticulocyte lysate, and a 10% volume of this material was added to mitotically arrested Xenopus egg extract, in the presence of DMSO or different concentrations of inhibitors. Aliquots were taken at 0 and 20 minutes, and samples separated by SDS-PAGE and radioactivity measured by quantitative phosphorimager analysis.

RPE1-H2B-GFP cells = experiment: Fluorescence live cell imaging with survival (Cox) analysis, RPE1; type: cell-based, human; conditions: proTAME 6 μM; for % rate of mitotic exit: relative to DMSO control, Cox model, apcin/apcin-M 25 μM; for Median mitotic duration: apcin or apcin-M 25 μM
Procedure: RPE1-H2B-GFP or U2OS-H2B-GFP cells were plated in 24-well glass-bottom plates 18-24 hours prior to siRNA transfection using RNAiMax (Invitrogen). After treatment with compound(s), DIC and GFP images were captured at 6-minute intervals for 45 hours. Movies were manually analyzed using Nikon Elements software or Image J.
RPE1-H2B-GFP or U2OS-H2B-GFP cells were plated in 24-well glass-bottom plates (Greiner BioOne, 662892) 18-24 hours prior to siRNA transfection using RNAiMax (Invitrogen). Plates were inserted into a covered chamber supplied with humidified 5% CO2 and mounted onto a motorized microscope stage (Prior Scientific). DIC and FITC images were captured at 6 minute intervals for 45 hours using a Nikon Ti inverted fluorescence microscope fitted with a 37° C. enclosed incubation chamber and using a 20× Plan Apo 0.75 NA objective lens. A Hamamatsu ORCA cooled CCD camera collected the images with 2×2 binning using Nikon Elements software (version 3.0). Movies were manually analyzed using Nikon Elements software or ImageJ. Mitotic duration was defined as the time from nuclear envelope breakdown until anaphase, in the case of normal mitosis, or until exit from prolonged mitosis as indicated by cytoplasmic blebbing accompanied by changes in chromatin as detected by H2B-GFP.
In order to detect differences in mitotic duration among cells in the live-cell imaging screen, a stratified Cox proportional hazards model (Cox, D. R. Regression models and life tables. J Royal Statistics Soc B34, 187-220, (1972)) was fit to censored mitotic duration times (where cells that are not observed exiting mitosis or dying in mitosis are censored at the last known time in mitosis). The Cox proportional hazards model is a semiparameteric approach to modeling time-to-event data, in which covariates are assumed to have constant proportional effects over time relative to a baseline hazard function that can take any form. In this case, stratification on “person” (the individual who analyzed the movie) and “date” (the date the assay was run) allow the baseline hazard function to differ across experimental blocks, but assume a fixed effect of treatment across experimental blocks. The model is thus: hi(t|Z=j)=hj(t)exp(β1×apcini+β2×apcinMi+β3×proTAMEi+β4×proTAMEi:apcinMi+β5×proTAMEi:apcini), j=1 . . . 4 where hi(t) is the hazard function of cell i at time t, hj(t) is the baseline hazard for strata j (with 4 levels, one for each person and date combination), apcini, proTAMEi, and apcinMi are indicator variables for presence or absence of the compounds apcin, proTAME, and apcin-M, respectively in cell i, proTAMEi:apcini is an indicator variable that is 1 if both proTAME and apcin are present in cell i, and 0 otherwise, and proTAMEi:apcinMi is a similar indicator variable for proTAME+apcin-M. In this model, […] represent the effects of apcin, apcin-M, and proTAME alone, while β4 and β5 represent the additional non-additive effect of the compounds beyond what is predicted from the combination of effects of the two compounds alone. This model was fit separately to cells treated with control siRNA or Mad2 siRNA. All statistical analysis was carried out in R 3.0.0 using the functions available as part of the survival package.
In this model, the β coefficients represent the log hazard ratios for exiting mitosis between treated and untreated cells. However, for ease of interpretation the β coefficients are exponentiated to convert them to normal hazard ratios, and then multiplied by 100 to convert to percentages relative to DMSO. These hazard ratios, which are referred to as mitotic exit rate, represent the relative probability that a treated cell in mitosis at time t will exit mitosis in the next time interval compared to an untreated cell.
For ease of interpretation, the treatment effects are presented relative to DMSO for all individual compounds and compound combinations. […]

APC/C-Cdc20 = APC/C-Cdc20 (Xenopus laevis, UniProt Q6DFD4); experiment: Kinetics of APC/C-Cdc20-dependent ubiquitination of cyclin B1 N-terminal fragment; type: biochemical; conditions: methylated ubiquitin
Procedure: Measurements of kinetics of ubiquitination were performed using an N-terminal fragment of cyclin B1 and APC/C isolated from Xenopus extract, exactly as previously described (Zeng, X. & King, R. W. Nat Chem Biol 8, 383-392, (2012)).
Kinetic analysis of APC^Cdc20 reactions. Endogenous APC^Cdc20 was isolated from Xenopus extract as described above. The ubiquitination mixture was prepared as described in Cdc20 ubiquitination assay with the exception that 60 μM methylated ubiquitin was used in place of WT ubiquitin. CycB-NT was diluted into the mixture to final concentrations of 1 μM, 500 nM, 250 nM, 125 nM and 62.5 nM prior to the reaction. For each reaction, 2.5 μl beads were mixed with 20 μl ubiquitination mixture and left on a shaker at RT for 30 seconds. The reaction was stopped by adding 7 μl hot 4×LDS sample buffer (Invitrogen NP0007)+[…]. Band intensity of the mono-, di-, and tri-ubiquitinated cycB-NT was quantitated with Image J and fitted to a hyperbolic equation by nonlinear regression.

U2OS-H2B-GFP cells = experiment: Fluorescence live cell imaging with survival (Cox) analysis, U2OS; type: cell-based, human; conditions: proTAME 12 μM
Procedure: Mitotic duration and cell fate were determined by manual inspection of the movies and plotted as Kaplan-Meier curves. The hatch marks on the Kaplan-Meier curved indicate mitotic duration endpoints of censored cells. Includes the combined results of five independent experiments. […] Pairwise comparison between proTAME and proTAME+apcin-M tested using a Cox proportional hazards model stratified by date, using data from only the experimental blocks in which both proTAME and proTAME+apcin were tested.
Movies were manually analyzed using Nikon Elements software or Image J.
Plates were inserted into a covered chamber supplied with humidified 5% CO2 and mounted onto a motorized microscope stage (Prior Scientific). […] A Hamamatsu ORCA cooled CCD camera collected the images with 2×2 binning using Nikon Elements software (version 3.0). Movies were manually analyzed using Nikon Elements software or ImageJ. Mitotic duration was defined as the time from nuclear envelope breakdown until anaphase, in the case of normal mitosis, or until exit from prolonged mitosis as indicated by cytoplasmic blebbing accompanied by changes in chromatin as detected by H2B-GFP.
The Cox proportional hazards model is a semiparameteric approach to modeling time-to-event data, in which covariates are assumed to have constant proportional effects over time relative to a baseline hazard function that can take any form. In this case, stratification on “person” (the individual who analyzed the movie) and “date” (the date the assay was run) allow the baseline hazard function to differ across experimental blocks, but assume a fixed effect of treatment across experimental blocks. The model is thus: hi(t|Z=j)=hj(t)exp(β1×apcini+β2×apcinMi+β3×proTAMEi+β4×proTAMEi:apcinMi+β5×proTAMEi:apcini), j=1 . . . […] This model was fit separately to cells treated with control siRNA or Mad2 siRNA. All statistical analysis was carried out in R 3.0.0 using the functions available as part of the survival package.

Sequence of APC (A0A1L8ESF3 entry or part of it): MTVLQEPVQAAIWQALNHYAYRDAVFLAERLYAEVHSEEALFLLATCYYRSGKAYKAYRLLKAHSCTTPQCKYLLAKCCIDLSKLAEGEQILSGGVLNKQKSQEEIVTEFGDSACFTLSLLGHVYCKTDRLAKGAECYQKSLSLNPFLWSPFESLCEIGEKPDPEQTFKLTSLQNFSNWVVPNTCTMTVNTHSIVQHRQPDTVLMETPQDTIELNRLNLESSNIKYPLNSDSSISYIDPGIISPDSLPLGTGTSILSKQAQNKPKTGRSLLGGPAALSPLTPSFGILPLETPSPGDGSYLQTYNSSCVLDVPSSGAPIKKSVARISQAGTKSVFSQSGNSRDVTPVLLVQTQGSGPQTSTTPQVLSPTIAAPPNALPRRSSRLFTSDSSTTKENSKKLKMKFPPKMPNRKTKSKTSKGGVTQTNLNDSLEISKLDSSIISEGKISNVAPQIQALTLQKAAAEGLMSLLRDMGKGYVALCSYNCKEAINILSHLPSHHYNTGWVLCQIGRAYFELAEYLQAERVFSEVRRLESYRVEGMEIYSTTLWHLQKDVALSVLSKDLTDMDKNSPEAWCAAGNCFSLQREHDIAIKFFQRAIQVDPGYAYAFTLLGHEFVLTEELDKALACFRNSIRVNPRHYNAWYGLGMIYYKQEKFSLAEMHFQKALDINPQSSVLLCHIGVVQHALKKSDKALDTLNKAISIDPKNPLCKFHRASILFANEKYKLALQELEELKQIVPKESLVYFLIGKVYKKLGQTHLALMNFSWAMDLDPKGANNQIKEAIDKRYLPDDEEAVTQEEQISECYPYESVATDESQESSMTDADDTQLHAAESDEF
Sequence of APC (Q6DFD4 entry or part of it, further chain): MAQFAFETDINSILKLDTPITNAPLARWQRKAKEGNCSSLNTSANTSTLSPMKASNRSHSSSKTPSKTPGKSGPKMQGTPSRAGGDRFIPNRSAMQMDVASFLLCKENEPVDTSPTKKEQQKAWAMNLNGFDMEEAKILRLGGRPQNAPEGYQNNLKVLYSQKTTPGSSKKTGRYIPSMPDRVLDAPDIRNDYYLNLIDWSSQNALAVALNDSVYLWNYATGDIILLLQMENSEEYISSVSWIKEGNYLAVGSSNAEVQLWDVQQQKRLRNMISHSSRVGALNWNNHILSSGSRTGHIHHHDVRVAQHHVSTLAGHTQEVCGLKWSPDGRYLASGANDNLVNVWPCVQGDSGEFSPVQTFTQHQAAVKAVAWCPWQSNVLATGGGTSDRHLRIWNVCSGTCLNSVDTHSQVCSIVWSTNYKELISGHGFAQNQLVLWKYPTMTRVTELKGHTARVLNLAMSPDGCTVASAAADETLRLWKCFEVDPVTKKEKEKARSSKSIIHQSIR

SMILES: COC(=O)[C@H](CCCNC(=N)N)NC(C)=O [AAME, Acetyl-L-Arginine Methyl Ester]
- Inhibition of cyclin B-luciferase proteolysis (APC): showed only low activity
- Competition with ^3H-TAME for binding to Xenopus APC (Xenopus APC): did not

SMILES: NCCCOC(=O)NC(Nc1ncccn1)C(Cl)(Cl)Cl (stereo not shown) [apcin-A]
- Activity on proteolysis of N-terminal ^35S-labeled fragment of cyclin B1 relative to apcin (APC/C): reduced activity

SMILES: Cc1ncc([N+](=O)[O-])n1CCOC(=O)NC(Nc1ncccn1)C(Cl)(Cl)Cl (stereo not shown) [apcin]
- % rate of mitotic exit (RPE1-H2B-GFP cells; Mad2 siRNA): 57.38%
- Median mitotic duration (RPE1-H2B-GFP cells; Table 3, control siRNA): 24
- Median mitotic duration (RPE1-H2B-GFP cells; Table 3, mad2 siRNA): 19
- % rate of mitotic exit (RPE1-H2B-GFP cells; control siRNA): 82.87%
- Effect on Km and kcat of APC-dependent ubiquitination (APC/C-Cdc20): caused a significant increase (p=0.0039) in the Km (Ki=23 μM) of the reaction but no reduction in kcat
- Median mitotic duration (U2OS-H2B-GFP cells; Table 7, apcin or apcin-M 25 μM): 24
- % rate of mitotic exit (U2OS-H2B-GFP cells; relative to DMSO control, Cox model, apcin/apcin-M 25 μM): 109.64%
